± gives the expanded uncertainty stated by the source.
Experiment: xn = mol fraction of the nth substance listed
Details: Liquid, Vibrating tube method

CC1=CC[C@H]2C[C@@H]1C2(C)C [(S)-2-pinene] + C=C1CCC2CC1C2(C)C
mass density [kg/m3]
Details	x1 = 0.1044	x1 = 0.1926	x1 = 0.3036	x1 = 0.3949	x1 = 0.502	x1 = 0.6052	x1 = 0.7022	x1 = 0.7983	x1 = 0.9028	x1 = 1
283.15 K, 20000 kPa	890.1 ± 1.1	889 ± 1.1	887.9 ± 1.1	886.9 ± 1.1	885.7 ± 1.1	884.7 ± 1.1	883.4 ± 1.2	882.3 ± 1.2	881.1 ± 1.2	880 ± 1.2
283.15 K, 25000 kPa	893.1 ± 1.1	891.9 ± 1.1	890.9 ± 1.1	889.9 ± 1.1	888.7 ± 1.1	887.8 ± 1.1	886.6 ± 1.2	885.4 ± 1.2	884.3 ± 1.2	883.2 ± 1.2
283.15 K, 30000 kPa	896 ± 1.1	894.8 ± 1.1	893.7 ± 1.1	892.9 ± 1.1	891.6 ± 1.1	890.7 ± 1.1	889.3 ± 1.2	888.5 ± 1.2	887.4 ± 1.2	886.3 ± 1.3
283.15 K, 35000 kPa	898.9 ± 1.1	897.7 ± 1.1	896.7 ± 1.1	895.8 ± 1.1	894.7 ± 1.1	893.7 ± 1.2	892.5 ± 1.2	891.6 ± 1.2	890.3 ± 1.2	889.4 ± 1.3
283.15 K, 40000 kPa	901.7 ± 1.1	900.6 ± 1.1	899.4 ± 1.1	898.6 ± 1.1	897.5 ± 1.1	896.6 ± 1.2	895.3 ± 1.2	894.6 ± 1.2	893.5 ± 1.3	892.5 ± 1.3
298.15 K, 20000 kPa	879.6 ± 1.1	878.2 ± 1.1	876.9 ± 1.1	875.8 ± 1.1	874.6 ± 1.1	873.4 ± 1.1	872.3 ± 1.2	871.2 ± 1.2	870 ± 1.2	868.8 ± 1.2
298.15 K, 25000 kPa	882.5 ± 1.1	881.3 ± 1.1	880 ± 1.1	879 ± 1.1	877.8 ± 1.1	876.7 ± 1.1	875.6 ± 1.2	874.5 ± 1.2	873.3 ± 1.2	872.1 ± 1.2
298.15 K, 30000 kPa	885.3 ± 1.1	884.2 ± 1.1	883 ± 1.1	882 ± 1.1	880.8 ± 1.1	879.7 ± 1.1	878.8 ± 1.2	877.6 ± 1.2	876.4 ± 1.2	875.3 ± 1.3
298.15 K, 35000 kPa	888.3 ± 1.1	887.3 ± 1.1	886.1 ± 1.1	885.1 ± 1.1	884 ± 1.1	882.9 ± 1.2	882 ± 1.2	880.8 ± 1.2	879.7 ± 1.2	878.6 ± 1.3
298.15 K, 40000 kPa	891.1 ± 1.1	890.2 ± 1.1	889.1 ± 1.1	888 ± 1.1	887.1 ± 1.1	886 ± 1.2	885.1 ± 1.2	884 ± 1.2	882.9 ± 1.3	881.9 ± 1.3
313.15 K, 20000 kPa	868 ± 1.1	867 ± 1.1	865.9 ± 1.1	864.9 ± 1.1	863.6 ± 1.1	862.6 ± 1.1	861.4 ± 1.2	860.3 ± 1.2	859 ± 1.2	858 ± 1.2
313.15 K, 25000 kPa	871.4 ± 1.1	870.3 ± 1.1	869.2 ± 1.1	868.2 ± 1.1	867 ± 1.1	865.8 ± 1.1	864.7 ± 1.2	863.6 ± 1.2	862.4 ± 1.2	861.3 ± 1.2
313.15 K, 30000 kPa	874.6 ± 1.1	873.5 ± 1.1	872.4 ± 1.1	871.4 ± 1.1	870.2 ± 1.1	869.1 ± 1.2	868 ± 1.2	866.9 ± 1.2	865.7 ± 1.2	864.7 ± 1.3
313.15 K, 35000 kPa	877.8 ± 1.1	876.7 ± 1.1	875.5 ± 1.1	874.6 ± 1.1	873.4 ± 1.1	872.3 ± 1.2	871.2 ± 1.2	870.2 ± 1.2	869.1 ± 1.2	867.9 ± 1.3
313.15 K, 40000 kPa	881.1 ± 1.1	879.9 ± 1.1	878.7 ± 1.1	877.8 ± 1.1	876.6 ± 1.1	875.5 ± 1.2	874.5 ± 1.2	873.5 ± 1.2	872.4 ± 1.3	871.3 ± 1.3
328.15 K, 20000 kPa	857.2 ± 1.1	855.9 ± 1.1	855 ± 1.1	853.7 ± 1.1	852.5 ± 1.1	851.3 ± 1.1	850.2 ± 1.2	849.1 ± 1.2	847.9 ± 1.2	846.7 ± 1.2
328.15 K, 25000 kPa	860.6 ± 1.1	859.5 ± 1.1	858.3 ± 1.1	857.2 ± 1.1	856.1 ± 1.1	854.9 ± 1.1	853.8 ± 1.2	852.7 ± 1.2	851.5 ± 1.2	850.4 ± 1.2
328.15 K, 30000 kPa	864.1 ± 1.1	863.1 ± 1.1	862 ± 1.1	860.8 ± 1.1	859.6 ± 1.1	858.5 ± 1.2	857.4 ± 1.2	856.3 ± 1.2	855.1 ± 1.2	854 ± 1.3
328.15 K, 35000 kPa	867.5 ± 1.1	866.6 ± 1.1	865.4 ± 1.1	864.3 ± 1.1	863.1 ± 1.1	861.9 ± 1.2	860.9 ± 1.2	859.8 ± 1.2	858.6 ± 1.2	857.5 ± 1.3
328.15 K, 40000 kPa	870.8 ± 1.1	870 ± 1.1	868.9 ± 1.1	867.7 ± 1.1	866.6 ± 1.2	865.5 ± 1.2	864.3 ± 1.2	863.4 ± 1.2	862.1 ± 1.3	861.1 ± 1.3
343.15 K, 20000 kPa	846.7 ± 1.1	845.5 ± 1.1	844.3 ± 1.1	843.2 ± 1.1	841.9 ± 1.1	840.7 ± 1.1	839.4 ± 1.2	838.3 ± 1.2	837 ± 1.2	835.9 ± 1.2
343.15 K, 25000 kPa	850.5 ± 1.1	849.3 ± 1.1	848.1 ± 1.1	847 ± 1.1	845.7 ± 1.1	844.6 ± 1.1	843.3 ± 1.2	842.1 ± 1.2	840.9 ± 1.2	839.7 ± 1.2
343.15 K, 30000 kPa	854.2 ± 1.1	853 ± 1.1	851.9 ± 1.1	850.9 ± 1.1	849.6 ± 1.1	848.5 ± 1.2	847.2 ± 1.2	846.2 ± 1.2	844.9 ± 1.2	843.8 ± 1.3
343.15 K, 35000 kPa	857.7 ± 1.1	856.6 ± 1.1	855.5 ± 1.1	854.5 ± 1.1	853.3 ± 1.1	852.2 ± 1.2	851 ± 1	850 ± 1	848.7 ± 1.3	847.7 ± 1.3
343.15 K, 40000 kPa	861.3 ± 1.1	860.2 ± 1.1	859.1 ± 1.1	858.1 ± 1.1	857 ± 1.2	855.9 ± 1.2	854.7 ± 1.2	853.7 ± 1.2	852.4 ± 1.3	851.4 ± 1.3
358.15 K, 20000 kPa	835.9 ± 1.1	834.6 ± 1.1	833.3 ± 1.1	832.2 ± 1.1	831 ± 1.1	829.8 ± 1.1	828.5 ± 1.2	827.3 ± 1.2	826.1 ± 1.2	825 ± 1.2
358.15 K, 25000 kPa	839.8 ± 1.1	838.6 ± 1.1	837.4 ± 1.1	836.3 ± 1.1	835 ± 1.1	833.9 ± 1.1	832.7 ± 1.2	831.5 ± 1.2	830.3 ± 1.2	829.2 ± 1.2
358.15 K, 30000 kPa	843.7 ± 1.1	842.5 ± 1.1	841.3 ± 1.1	840.3 ± 1.1	839 ± 1.1	838 ± 1.2	836.7 ± 1.2	835.6 ± 1.2	834.4 ± 1.2	833.3 ± 1.3
358.15 K, 35000 kPa	847.6 ± 1.1	846.4 ± 1.1	845.2 ± 1.1	844.2 ± 1.1	843 ± 1.2	841.8 ± 1.2	840.7 ± 1.2	839.6 ± 1.2	838.4 ± 1.3	837.4 ± 1.3
358.15 K, 40000 kPa	851.5 ± 1.1	850.4 ± 1.1	849.1 ± 1.1	848.2 ± 1.1	847.1 ± 1.2	846 ± 1.2	844.8 ± 1.2	843.8 ± 1.2	842.6 ± 1.3	841.5 ± 1.3
